Results taken from patent US20110105623A1 (Biogenic Innovations, LLC, priority 2009, published 2011).
Several values for one entry are separate records, joined by “and”; a condition that tells them apart may be missing. Equal values may be shown once. Entries after “also recorded” stand apart in the source; their conditions may differ. Read-outs that look alike come from different tables or passages of the source.

Experiments:
[1] = test system: White Labs Edinburgh Ale yeast; experiment: Fermentation efficiency in production of beer (Scotch Ale); type: cell-based; details: 0.5% MSM
From the text: This positive impact includes such organisms as fungi, yeast, and bacteria. Yeast cultures are involved in the production of beer during the fermentation process to produce ethanol and carbon dioxide. […] Wort is the liquid extracted from the mashing process during the brewing of beer or whisky. Wort contains the sugars that are fermented by the brewing yeast to produce alcohol.
This Procedure is detailed below.
After preparing the mash, the brewing process was started. […] Equipment was cleaned thoroughly with PBW. The wort chiller and filtered air stone were sanitized with brewing sanitizer (San Star Brewing Sanitizer). […] At 30 minutes of boil, a second aliquot (0.5 ounces) of Cascade hops was added. At 40 minutes of boil, third aliquot (0.5 ounces) of Cascade hops was added as well as 2 teaspoons of […] Moss. At 50 minutes of boil, a fourth aliquot (0.5 ounces) of Cascade hops was added. Wort was decanted from the brew kettle to the wort chiller and chilled to 74° F. The wort was then divided into two fermentors (each 21 liters in volume). […] Both fermentors were aerated for 25 minutes with sanitized filtered air stone.

Salmonella typhimurium = experiment: USP AET, MSM in TSB; type: cell-based; set-up: key: Colonies too numerous to count (TNTC); details: 48 hrs
Lactobacillus rhamnosus = experiment: Growth in MRS broth fortified with MSM; type: cell-based; details: for Growth: 0.04% MSM in MRS broth, 0-72 hours
Description: Each organism (Lactobacillus rhamnosus, Lactobacillus acidophilus, and Bifidobacterium bifidum) was grown in MRS bacterial growth medium (broth) and plated on MRS agar at different time intervals. Results are expressed in colony forming units per milliliter (cfu/mL).
The 0.1% and 0.04% test concentrations were prepared by making a 1:10 dilution of the 1% and 0.4% test solutions. Once each set of test media was plated for sterility, they were inoculated at a level of 100 μl of inoculum per 100 g or mLs of test broth (1:1000 inoculum dilutions) with each respective microorganism. All bacterial organisms were incubated at 35° C.+/−2° C. for the duration of the study.
All samples were plated on MRS agar at time 0, 12, 36, 48, 60 and 72 hours (+/−45 minutes). All preparations and plating were conducted at room temperature. All plating events were incubated at 35° C.+/−2° C. for at least 2 days or 3 days for Bifidobacterium. Test samples were plated in triplicate at each test date and the averages are reported.

[2] = test system: normal flora found in the product; details: for Log Growth: rows 0.5-10% MSM
E. coli = experiment: Log growth in Müller-Hinton media with or without NaCl; type: cell-based, Escherichia coli
Description: Standard Müller-Hinton media was compared to Müller-Hinton media supplemented with NaCl to the same level as the saline-based media of Example 4. […] After inoculation of each MSM-containing media type with 1.9×10^7 cfu/mL of E. coli, the cultures were incubated at 35° C. for seven days. Aliquots of each culture were taken at 24 and 48 hours, as well as 7 days.

[3] = test system: Rhinovirus type 14 (ATCC #VR-284); type: cell-based
[4] = test system: ATCC strain 8739 Escherichia coli; experiment: Bromcresol Purple color change with MSM; type: cell-based
Description: To investigate whether MSM functions as a carrier/transporter, the ability of MSM to transport Bromcresol into the E. coli was evaluated. Bromcresol Purple is an indicator dye that turns yellow in the presence of E. coli bacteria. It is non-toxic to the organism. […] All concentrations were plated out to 10^−7 dilutions to ascertain the log reduction.
Flake OptiMSM was weighed out using a certified Mettler Toledo AG245 balance SN: 1115210833 and aliquoted for each concentration. […] Tubes were cooled to room temperature which was approximately 20° C. All tubes were then spiked with the same dilution of Escherichia coli that gave a level of colony forming units at 6.0×10^6/mL (6.8). The tubes were then incubated at 25° C. Daily observation for color change was performed during the first seven days. The tubes were mixed periodically to ensure that the OptiMSM was well equilibrated at all times. A positive and negative control was ascertained.

Aspergillus niger = experiment: USP <51> AET in cosmetic cream/composition; type: cell-based; details: 10% MSM in cosmetic cream without preservative, 48 hrs-28 days

Methylsulfonylmethane [MSM]
fermentor activity sooner than control [1]: 58% | sooner time of completion [1]: 17-25% | starter activity sooner than control [1]: 80% | time to activity, fermentor [1]: 3.5 h | time to maximum fermentation [1]: 5 days | AET microorganism count (Salmonella typhimurium; 1:100 dilution of MSM): TNTC | AET microorganism count (Salmonella typhimurium; 1:1000 dilution of MSM): TNTC | Growth (Lactobacillus rhamnosus; 0 hours after inoculation): 1.7 × 10^6 cfu/mL | Growth (Lactobacillus rhamnosus; 12 hours after inoculation): 2.1 × 10^7 cfu/mL | Growth (Lactobacillus rhamnosus; 24 hours after inoculation): 1.5 × 10^9 cfu/mL | Growth (Lactobacillus rhamnosus; 36 hours after inoculation): 1.8 × 10^9 cfu/mL | Growth (Lactobacillus rhamnosus; 48 hours after inoculation): 2.1 × 10^9 cfu/mL | Growth (Lactobacillus rhamnosus; 60 hours after inoculation): 2.6 × 10^9 cfu/mL | higher than 0% control (Lactobacillus rhamnosus; first 12 hours, 0.2% MSM): 41% | higher than 0% control (Lactobacillus rhamnosus; first 12 hours, 1% MSM): 47% | recovered more than the 0% control (Lactobacillus rhamnosus; first 12 hours, all MSM samples): at least 12% | Log Growth of 40% Milk Fat ([2]; 0.5% MSM, day 0): 0.00 logs | Log Growth of 40% Milk Fat ([2]; 0.5% MSM, day 7): 0.35 logs | Log Growth of 40% Milk Fat ([2]; 0.5% MSM, day 14): 2.32 logs | Log Growth of 40% Milk Fat ([2]; 0.5% MSM, day 21): 4.46 logs | Log Growth of 40% Milk Fat ([2]; 0.5% MSM, day 24): 4.02 logs | Log Growth of 40% Milk Fat ([2]; 0.5% MSM, day 28): 1.95 logs | Log Growth of 40% Milk Fat ([2]; 1.0% MSM, day 7): 0.00 logs | Log Growth of 40% Milk Fat ([2]; 1.0% MSM, day 14): 2.37 logs | Log Growth of 40% Milk Fat ([2]; 1.0% MSM, day 21): 4.35 logs | Log Growth of 40% Milk Fat ([2]; 1.0% MSM, day 24): 3.33 logs | Log Growth of 40% Milk Fat ([2]; 1.0% MSM, day 28): 3.86 logs | Log Growth ([2]; 2% Milk Fat, day 7): 1.59 log | Log Growth of 40% Milk Fat ([2]; 5.0% MSM, day 0): 0.00 logs | Log Growth of 40% Milk Fat ([2]; 5.0% MSM, day 7): 0.80 logs | Log Growth of 40% Milk Fat ([2]; 5.0% MSM, day 14): 0.50 logs | Log Growth of 40% Milk Fat ([2]; 5.0% MSM, day 21): 1.25 logs | Log Growth of 40% Milk Fat ([2]; 5.0% MSM, day 24): 1.03 logs | Log Growth of 40% Milk Fat ([2]; 5.0% MSM, day 28): 0.35 logs | Log Growth of 40% Milk Fat ([2]; 10.0% MSM, day 0): 0.00 logs | Log Growth of 40% Milk Fat ([2]; 10.0% MSM, day 7): 0.00 logs | Log Growth of 40% Milk Fat ([2]; 10.0% MSM, day 14): 1.95 logs | Log Growth of 40% Milk Fat ([2]; 10.0% MSM, day 21): 4.45 logs | Log Growth of 40% Milk Fat ([2]; 10.0% MSM, day 24): 0.85 logs | Log Growth of 40% Milk Fat ([2]; 10.0% MSM, day 28): 0.35 logs | lower than the control by ([2]; 40% milk product, Day 21, 5.0% MSM): 3.22 logs | microbial load ([2]; 40% milk product, Day 21, […] MSM): 2.16 logs | microbial count ([2]; 40% milk product, Day 28, 5.0% and 10.0% MSM): 0.35 logs | Log Growth ([2]; Nonfat Milk, day 7): 1.00 log | Log Growth of 40% Milk Fat ([2]; […] MSM, day 0): 0.00 logs | Log Growth of 40% Milk Fat ([2]; […] MSM, day 7): 0.00 logs | Log Growth of 40% Milk Fat ([2]; […] MSM, day 14): 0.00 logs | Log Growth of 40% Milk Fat ([2]; […] MSM, day 21): 2.16 logs | Log Growth of 40% Milk Fat ([2]; […] MSM, day 24): 3.79 logs | Log Growth of 40% Milk Fat ([2]; […] MSM, day 28): 0.95 logs | log reduction from the initial inoculum (E. coli; 24 hours, all media, MSM greater than 13%): approximately 1 log | reduced E. coli growth by (E. coli; 48 hours, MSM greater than 13%): 1-2 logs | log reduction in E. coli (E. coli; 7 days, FMHS, 12% MSM): 3 log | Average Log Stimulation [3]: 0.053log10 and 0.11log10 | Average Percent Stimulation [3]: 11.49% and 22.38% | Average TCID50 [3]: 4.42log10 and 5.00log10 and 5.58log10 and 5.42log10 and 5.67log10 and 5.25log10 | Log Stimulation [3]: 0.08log10 and 0.00log10 and 0.17log10 | TCID50 [3]: 4.25log10 and 4.50log10 and 4.75log10 and 5.00log10 and 5.25log10 and 5.50log10 and 6.00log10 and 5.75log10 | average log10 reduction ([3]; 1% MSM): 0.14 log10 | average percent reduction ([3]; 1% MSM): 27.56% | average log10 reduction ([3]; 2% MSM): 0.42 log10 | average percent reduction ([3]; 2% MSM): 61.98% | average log10 reduction ([3]; 3% MSM): 0.11 log10 | average percent reduction ([3]; 3% MSM): 22.38% | average log10 reduction ([3]; 4% MSM): 0.28 log10 | average percent reduction ([3]; 4% MSM): 47.52% | HillSlope, best-fit value ([3]; log(inhibitor) vs. normalized response, variable slope): 0.6280 | LogIC50, best-fit value ([3]; log(inhibitor) vs. normalized response, variable slope, dose in mM): 1.582 | color change of the broth ([4]; 5-7% MSM, Day one): color change of the broth to yellow | color change of the broth ([4]; 8% MSM, Day one, Day three): slight clearing of color; also recorded: turning to the typical yellow color | color change of the broth ([4]; 9% MSM, Day 7): turning to a yellow color | color change of the broth ([4]; 10%-16% MSM, Day 7, 14, 30): No color change; also recorded: no signs of change | organism recovery, streaked on MacConkey agar ([4]; concentration tubes 10%-16% MSM, 72 hour incubation): No organisms were observed | AET microorganism count (Aspergillus niger; 48 hours after inoculation): 8 × 10^3 | AET microorganism count (Aspergillus niger; 14 days after inoculation): 6 × 10^3 | AET microorganism count (Aspergillus niger; 28 days after inoculation): 5 × 10^2
